Measured values reported in patent US20180153995A1, “USE OF ANTIMICROBIAL POLYMERS FOR RE-SENSITIZATION OF MICROORGANISMS UPON EMERGENCE OF RESISTANCE TO ANTI-MICROBIAL AGENTS” (Technion Research & Development Foundation Limited, priority 2008, published 2018).
Like-named read-outs stand apart in the source and are kept apart here.

Tests used:
[1] = test system: S. aureus 17314; experiment: Antibiotic MIC by microdilution with or without sub-MIC polymer; format: cell-based, Staphylococcus aureus; details: S. aureus 17314
[2] = test system: E. coli K-12 efflux knockout mutant; format: cell-based, Escherichia coli; details: E. coli AG100A (efflux−)
Method in brief: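 Broth microdilution, inocula 10^5 bacteria/ml, 24 h at 37 °C. Growth read as OD620 against calibration standards.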

[3] = test system: E. coli 14182; experiment: Antibiotic MIC by microdilution with or without sub-MIC polymer; format: cell-based, Escherichia coli
[4] = test system: MRSA 15903; experiment: microbe, parasite or virus in culture; format: cell-based, Staphylococcus aureus
Method in brief: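 Values are FIC indexes, summing each agent's MIC in combination divided by its MIC alone, for MRSA 15903. Interpretation: <0.5 clear re-sensitization, 0.5 to 4 marginal or none, >4 antagonistic.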

[5] = test system: E. coli 14384; experiment: Antibiotic MIC by microdilution with or without sub-MIC polymer; format: cell-based, Escherichia coli; details: E. coli 14384
Procedure: MICs were determined by microdilution susceptibility testing in 96-well plates (by Nunc) using inocula of 10^5 bacteria per ml. Cell populations were evaluated by optical density measurements at 620 nm and were calibrated against a set of standards. Hundred (100) μl of a bacterial suspension were added to 100 μl of culture medium (control) or to 100 μl of culture medium containing various polymer concentrations in 2-fold serial dilutions. Inhibition of proliferation was determined by optical density measurements at 620 nm after an incubation period of 24 hours at 37° C.
100 μl of a bacterial suspension were added to 100 μl of culture medium (control) or to 100 μl of culture medium containing various antibiotic and C14(9-ene)KKNC12KNH2 (SEQ ID NO: 5) concentrations in 2-fold serial dilutions. Inhibition of proliferation was determined by optical density measurements at 620 nm after an incubation period of 24 hours at 37° C.

[6] = +½ MIC (3.12 μM) C14(9-ene)KKNC12KNH2

Structure (SMILES): CC[C@H]1OC(=O)[C@H](C)[C@@H](O[C@H]2C[C@@](C)(OC)[C@@H](O)[C@H](C)O2)[C@H](C)[C@@H](O[C@@H]2O[C@H](C)C[C@H](N(C)C)[C@H]2O)[C@](C)(O)C[C@@H](C)C(=O)[C@H](C)[C@@H](O)[C@]1(C)O [Erythromycin, erythromycin]
- Antibiotic MIC ([1]; +¼ MIC (1.6 μM) C12K(KNC12K)2NH2): 1 mg/L
- Antibiotic MIC ([1]; +¼ MIC (1.6 μM) C12KKNC12KNH2): 1 mg/L
- Antibiotic MIC ([1]; +¼ MIC (1.6 μM) C14(9-ene)KKNC12KNH2): 1 mg/L
- Antibiotic MIC ([1]; +¼ MIC (1.6 μM) C16(9-ene)KKNC12KNH2): 1 mg/L
- Antibiotic MIC ([1]; +½ MIC (3.12 μM) C12K(KNC12K)2NH2): 0.5 to 1 mg/L
- Antibiotic MIC ([1]; +½ MIC (3.12 μM) C12KKNC12KNH2): 1 mg/L
- Antibiotic MIC [1, 6]: 1 mg/L
- Antibiotic MIC ([1]; +½ MIC (3.12 μM) C16(9-ene)KKNC12KNH2): 0.5 mg/L
- Antibiotic MIC ([1]; +⅓ MIC (2.1 μM) C12K(KNC12K)2NH2): 0.5 to 1 mg/L
- Antibiotic MIC ([1]; +⅓ MIC (2.1 μM) C12KKNC12KNH2): 1 mg/L
- Antibiotic MIC ([1]; +⅓ MIC (2.1 μM) C14(9-ene)KKNC12KNH2): 1 mg/L
- Antibiotic MIC ([1]; +⅓ MIC (2.1 μM) C16(9-ene)KKNC12KNH2): 1 mg/L
- Antibiotic MIC ([1]; no polymer (None), Table 9): 1 mg/L
- Antibiotic MIC ([1]; no polymer (None), Table 10): 1 mg/L
- Antibiotic MIC ([1]; no polymer (None), Table 11): 1 mg/L
- Antibiotic MIC ([1]; no polymer (None), Table 12): 1 mg/L
- Antibiotic MIC, None ([2]; antibiotic alone (Table 16)): 4 to 8 mg/L
- Antibiotic MIC, None ([2]; antibiotic alone (Table 17)): 4 to 8 mg/L
- Antibiotic MIC in presence of C12K(NC8K)7NH2 (SEQ ID NO: 4), +¼ MIC ([2]; polymer at ¼ of its MIC (Table 16)): 4 to 8 mg/L
- Antibiotic MIC in presence of C12K(NC8K)7NH2 (SEQ ID NO: 4), +½ MIC ([2]; polymer at ½ of its MIC (Table 16)): 2 mg/L
- Antibiotic MIC in presence of C12K(NC8K)7NH2 (SEQ ID NO: 4), +⅓ MIC ([2]; polymer at ⅓ of its MIC (Table 16)): 2 to 4 mg/L
- Antibiotic MIC in presence of the OAK, +¼ MIC ([2]; the OAK at ¼ of its MIC (Table 17)): 4 to 8 mg/L
- Antibiotic MIC in presence of the OAK, +½ MIC ([2]; the OAK at ½ of its MIC (Table 17)): 1 to 2 mg/L
- Antibiotic MIC in presence of the OAK, +⅓ MIC ([2]; the OAK at ⅓ of its MIC (Table 17)): 4 mg/L
- Antibiotic MIC ([3]; +½ MIC C12K(NC8K)5NH2): 8 to 16 mg/L
- Antibiotic MIC ([3]; +⅓ MIC C12K(NC8K)5NH2): 32 to 64 mg/L
- Antibiotic MIC in presence of C12K(NC8K)7NH2 (SEQ ID NO: 4), +¼ MIC ([3]; polymer at ¼ of its MIC): 32 mg/L
- Antibiotic MIC in presence of C12K(NC8K)7NH2 (SEQ ID NO: 4), +½ MIC ([3]; polymer at ½ of its MIC): 8 mg/L
- Antibiotic MIC in presence of C12K(NC8K)7NH2 (SEQ ID NO: 4), +⅓ MIC ([3]; polymer at ⅓ of its MIC): 16 mg/L
- MIC ([4]; MRSA 15903, +¼ polymer MIC (1.6 μM) NC12(KNC12K)2NH2): 1 mg/L
- MIC ([4]; MRSA 15903, +½ polymer MIC (3.1 μM) NC12(KNC12K)2NH2): 0.016 mg/L
- MIC, ½ + MIC OAK ([4]; MRSA 15903, with C12K(KNC10K)3NH2 (SEQ ID NO: 10) at ½ of its MIC): 0.13 to 0.25 mg/L
- MIC, ⅓ + MIC OAK ([4]; MRSA 15903, with C12K(KNC10K)3NH2 (SEQ ID NO: 10) at ⅓ of its MIC): 0.5 mg/L
- MIC ([4]; S. aureus CI-15903, +polymer (¼ MIC) C12(5-ene)KKNC12KNH2): 0.5 mg/L
- MIC ([4]; S. aureus CI-15903, +polymer (½ MIC) C12(5-ene)KKNC12KNH2): 0.1 mg/L
- MIC ([4]; S. aureus CI-15903, +polymer (⅓ MIC) C12(5-ene)KKNC12KNH2): 0.1 mg/L
- MIC ([4]; Staphylococcus aureus, MRSA, 24 h, MRSA 15903, antibiotic alone (Table 22), read-out: MIC, Alone): 1 mg/L
- MIC ([4]; Staphylococcus aureus, MRSA, 24 h, MRSA 15903, antibiotic alone, read-out: MIC): 0.5 mg/L
- MIC ([4]; Staphylococcus aureus, MRSA, 24 h, S. aureus CI-15903, alone, read-out: MIC): 0.5 mg/L
- Antibiotic MIC ([5]; +¼ MIC C12K(NC8K)5NH2): 32 to 64 mg/L
- Antibiotic MIC [5, 6]: 32 mg/L
- Antibiotic MIC ([5]; +½ MIC C12K(NC8K)5NH2): 4 to 8 mg/L
- Antibiotic MIC ([5]; +⅓ MIC C12K(NC8K)5NH2): 32 mg/L
- Antibiotic MIC in presence of C12K(NC8K)7NH2 (SEQ ID NO: 4), +½ MIC ([5]; polymer at ½ of its MIC): 8 to 16 mg/L
